Assays:
[1] = tested on: KOXY (Klebsiella oxytoca); experiment: MIC determination; assay type: cell-based; details: Klebsiella oxytoca, CAMH broth, 20 μM Apo-Transferrin, 37° C., 18 hours, read-out: Minimum Inhibitory Concentrations, KOXY
In short: (§1)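 Values come from a visual broth microdilution read: the first transparent well at the lowest drug level defines MIC. Inocula were standardized to 0.5 McFarland units, and the medium was CAMH with 20 μM apo-transferrin. Plates incubated overnight, 18 h, at 37 °C.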

[2] = tested on: KP (Klebsiella pneumoniae); experiment: MIC determination; assay type: cell-based; details: 20 μM Apo-Transferrin, 37° C., 18 hours
In short: as §1

EC(KB2 CTX-M-14) = experiment: MIC determination; assay type: cell-based, Escherichia coli; details: Escherichia coli, 18 h, read-out: Minimum Inhibitory Concentrations, EC(KB2 CTX-M-14)
In short: as §1

EC (URMC-2) = experiment: MIC determination; assay type: cell-based, Escherichia coli; details: Escherichia coli, CAMH broth, 20 μM Apo-Transferrin, 37° C., 18 hours, read-out: Minimum Inhibitory Concentrations, EC (URMC-2)
In short: as §1

EC (RR -1) = experiment: MIC determination; assay type: cell-based, Escherichia coli; details: CAMH broth, 20 μM Apo-Transferrin, 37° C., 18 hours
In short: as §1

EC (RR -2) = experiment: MIC determination; assay type: cell-based, Escherichia coli; details: CAMH broth, 20 μM Apo-Transferrin, 37° C., 18 hours
In short: as §1

EC (URMC-1) = experiment: MIC determination; assay type: cell-based, Escherichia coli; details: Escherichia coli, CAMH broth, 20 μM Apo-Transferrin, 37° C., 18 hours, read-out: Minimum Inhibitory Concentrations, EC (URMC-1)
In short: as §1

EC(KB1 CTX-M-15) = experiment: MIC determination; assay type: cell-based, Escherichia coli; details: Escherichia coli, CAMH broth, 20 μM Apo-Transferrin, 37° C., 18 hours, read-out: Minimum Inhibitory Concentrations, EC(KB1 CTX-M-15)
In short: as §1

EC (URMC-3) = experiment: MIC determination; assay type: cell-based, Escherichia coli; details: Escherichia coli, CAMH broth, 20 μM Apo-Transferrin, 37° C., 18 hours, read-out: Minimum Inhibitory Concentrations, EC (URMC-3)
In short: as §1

EC(KB2 CTX-M-15) = experiment: MIC determination; assay type: cell-based, Escherichia coli; details: Escherichia coli, CAMH broth, 20 μM Apo-Transferrin, 37° C., 18 hours, read-out: Minimum Inhibitory Concentrations, EC(KB2 CTX-M-15)
In short: as §1

EC(ATCC NDM-1) = experiment: MIC determination; assay type: cell-based, Escherichia coli; details: Escherichia coli, CAMH broth, 20 μM Apo-Transferrin, 37° C., 18 hours, read-out: Minimum Inhibitory Concentrations, EC(ATCC NDM-1)
In short: as §1

KP(ATCC SHV-18) = experiment: MIC determination; assay type: cell-based, Klebsiella pneumoniae; details: CAMH broth, 20 μM Apo-Transferrin, 37° C., 18 hours
In short: as §1

[3] = tested on: ENC (Enterobacter cloacae); experiment: MIC determination; assay type: cell-based; details: CAMH broth, 20 μM Apo-Transferrin, 37° C., 18 hours
In short: as §1

EC (Escherichia coli) = experiment: MIC determination; assay type: cell-based; details: 20 μM Apo-Transferrin, 37° C., 18 hours; for MIC: Escherichia coli, first EC column of Table 3-1, CAMH broth, read-out: Minimum Inhibitory Concentrations, EC; for Minimum Inhibitory Concentrations, EC: Table 3-1, CAMH broth
In short: as §1

EC(KB1 CTX-M-14) = experiment: MIC determination; assay type: cell-based, Escherichia coli; details: Escherichia coli, 18 h, read-out: Minimum Inhibitory Concentrations, EC(KB1 CTX-M-14)
In short: as §1

various enteric bacteria = experiment: MIC determination, summary in text; assay type: cell-based; details: review of Tables 3-1 to 3-6
Experimental: (§2) Sterile technique was used throughout these experiments. Suspensions of organisms were removed from storage (−80° C.) and partially thawed. Partially thawed organisms (1 μL) were inoculated into 3 mL sterile LB Broth in a sterile culture tube and capped, then cultured at 37° C. with shaking for 4-5 hours until the optical density at 600 nm (OD600) was greater than 0.1 on a single beam spectrophotometer.
(§3) The concentration of organisms was adjusted to 0.08-0.1 OD600 (0.5 McFarland units) by dilution with sterile cation-adjusted Meuller-Hinton (CAMH) broth. The suspensions were used within 30 minutes of preparation.
(§4) A stock solution was made of each test compound by measuring 6.4 mg of the compound on an analytical balance and dissolving it in DMSO (1 mL) to get a transparent solution. The solutions were stored at −20° C. and thawed prior to use.
(§5) Sterile CAMH broth (200 μL) containing 20 μM Apo-Transferrin was pipetted into the first row of 8 columns of a sterile, round-bottomed, transparent, 96-well microplate using an 8-channel pipette equipped with sterile tips. One hundred μL was pipetted into the wells of the remaining 11 rows.
To each well of the first row was pipetted 2.0 μL of the 6.4 mg/mL stock test compound stock solution to give 1:100 dilutions and a final concentration of 64 μg/mL and mixed.
(§6) With an 8-channel pipette equipped with sterile tips, 100 μL of the first row solution was transferred to the second row and mixed. The process was repeated for the second to third rows and continued through row 11. One hundred μL from row 11 was removed and discarded so that all 12 rows contained 100 μL. Row 12 contained no compound and rows 1-11 contained 64, 32, 16, 8, 4, 2, 1, 0.5, 0.25, 0.125, […] of a given compound.
(§7) Inoculant suspensions (0.5 μL) were added to the 12 wells of each column. The plates were then covered and incubated at 37° C. overnight for 18 hours.
(§8) For each organism the MIC was determined by identifying the transparent well with the lowest test compound concentration.

[4] = tested on: various Pseudomonas strains; experiment: MIC determination, summary in text; assay type: cell-based, Pseudomonas aeruginosa; details: review of Tables 1-1 and 1-2
Experimental: as §2, §3, §4, §5, §6, §7, §8

[5] = first KP column of Table 3-1, CAMH broth
[6] = second KP column of Table 3-1, CAMH broth

Compound	MIC [1]	Minimum Inhibitory Concentrations, KP [2, 5]	Minimum Inhibitory Concentrations, KP [2, 6]	MIC (EC(KB2 CTX-M-14))	MIC (EC (URMC-2))	Mimimum Inhibitory Concentrations, EC (RR -1) (EC (RR -1))	Mimimum Inhibitory Concentrations, EC (RR -2) (EC (RR -2))	MIC (EC (URMC-1))	MIC (EC(KB1 CTX-M-15))	MIC (EC (URMC-3))	MIC (EC(KB2 CTX-M-15))	MIC (EC(ATCC NDM-1))	Minimum Inhibitory Concentrations, KP(ATCC SHV-18) (KP(ATCC SHV-18))	Mimimum Inhibitory Concentrations, ENC [3]	MIC (EC (Escherichia coli))	Minimum Inhibitory Concentrations, EC (EC (Escherichia coli))	MIC (EC(KB1 CTX-M-14))	MICs for various enteric bacteria, in words (various enteric bacteria)	MICs for various Pseudomonas strains, in words [4]
CC(C)(O/N=C(\C(=O)N[C@@H]1C(=O)N2C(C(=O)O)=C(C=Cc3ccc(C[N+]4(C)CCc5c(Cl)c(O)c(O)c(Cl)c5C4)cc3)CS[C@H]12)c1csc(N)n1)C(=O)O (mixture of isomers) [Compound 429, 2-(4-((E/Z)-2-((6R,7R)-7-((Z)-2-(2-aminothiazol-4-yl)-2-(((2-carboxypropan-2-yl)oxy)imino)acetamido)-2-carboxy-8-oxo-5-thia-1-azabicyclo[4.2.0]oct-2-en-3-yl)vinyl)benzyl)-5,8 dichloro-6,7-dihydroxy-2-methyl-1,2,3,4-tetrahydroisoquinolin-2-ium]	0.5 µg/mL	1 microgram/mL	1 microgram/mL	1 µg/mL	0.13 µg/mL	≤0.06 microgram/mL	≤0.06 microgram/mL	0.5 µg/mL	8 µg/mL	0.5 µg/mL	8 µg/mL	> 64 µg/mL							
C#CC[N+]1(Cc2ccc(C=CC3=C(C(=O)O)N4C(=O)[C@@H](NC(=O)/C(=N\OC(C)(C)C(=O)O)c5csc(N)n5)[C@H]4SC3)cc2)CCc2cc(O)c(O)cc2C1 (mixture of isomers) [Compound 446, 2-(4-((E/Z)-2-((6R,7R)-7-((Z)-2-(2-aminothiazol-4-yl)-2-(((2-carboxypropan-2-yl)oxy)imino)acetamido)-2-carboxy-8-oxo-5-thia-1-azabicyclo[4.2.0]oct-2-en-3-yl)vinyl)benzyl)-6,7-dihydroxy-2-(prop-2-yn-1-yl)-1,2,3,4-tetrahydroisoquinolin-2-ium]				8 µg/mL					64 µg/mL		> 64 µg/mL	> 64 µg/mL	1 microgram/mL	4 microgram/mL	0.5 µg/mL	0.5 microgram/mL	2 µg/mL		
CC(C)(O/N=C(\C(=O)N[C@@H]1C(=O)N2C(C(=O)O)=C(C=Cc3ccc(C[N+]4(C)Cc5c(Cl)c(O)c(O)c(Cl)c5C4)cc3)CS[C@H]12)c1csc(N)n1)C(=O)O (mixture of isomers) [Compound 431, 2-(4-((E/Z)-2-((6R,7R)-7-((Z)-2-(2-aminothiazol-4-yl)-2-(((2-carboxypropan-2-yl)oxy)imino)acetamido)-2-carboxy-8-oxo-5-thia-1-azabicyclo[4.2.0]oct-2-en-3-yl)vinyl)benzyl)-4,7-dichloro-5,6-dihydroxy-2-methylisoindolin-2-ium]	0.13 µg/mL	0.13 microgram/mL	0.13 microgram/mL		≤ 0.06 µg/mL	≤0.06 microgram/mL	≤0.06 microgram/mL	0.25 µg/mL	2 µg/mL	0.25 µg/mL	2 µg/mL	> 64 µg/mL			0.5 µg/mL	0.5 microgram/mL		low microgram/mL MICs	low microgram/mL MICs
CC(C)(O/N=C(\C(=O)N[C@@H]1C(=O)N2C(C(=O)O)=C(C=Cc3ccc(C[N+]4(C)Cc5cc(O)c(O)c(Cl)c5C4)cc3)CS[C@H]12)c1csc(N)n1)C(=O)O (mixture of isomers) [Compound 432, 2-(4-((E/Z)-2-((6R,7R)-7-((Z)-2-(2-aminothiazol-4-yl)-2-(((2-carboxypropan-2-yl)oxy)imino)acetamido)-2-carboxy-8-oxo-5-thia-1-azabicyclo[4.2.0]oct-2-en-3-yl)vinyl)benzyl)-4-chloro-5,6-dihydroxy-2-methylisoindolin-2-ium]	0.5 µg/mL	1 microgram/mL	1 microgram/mL		≤ 0.06 µg/mL	≤0.06 microgram/mL	≤0.06 microgram/mL	0.5 µg/mL	1 µg/mL	0.13 µg/mL	1 µg/mL	> 64 µg/mL			0.25 µg/mL	0.25 microgram/mL		low microgram/mL MICs	
CC(C)(O/N=C(\C(=O)N[C@@H]1C(=O)N2C(C(=O)O)=C(C=Cc3ccc(C[N+]4(C)CCc5ccc(O)c(O)c5C4)cc3)CS[C@H]12)c1csc(N)n1)C(=O)O (mixture of isomers) [Compound 442, 2-(4-((E/Z)-2-((6R,7R)-7-((Z)-2-(2-aminothiazol-4-yl)-2-(((2-carboxypropan-2-yl)oxy)imino)acetamido)-2-carboxy-8-oxo-5-thia-1-azabicyclo[4.2.0]oct-2-en-3 yl)vinyl)benzyl)-7,8-dihydroxy-2-methyl-1,2,3,4-tetrahydroisoquinolin-2-ium]					0.13 µg/mL	0.25 microgram/mL	0.13 microgram/mL	0.25 µg/mL	32 µg/mL	0.13 µg/mL	32 µg/mL	> 64 µg/mL	0.5 microgram/mL	8 microgram/mL	0.25 µg/mL	0.25 microgram/mL	1 µg/mL		
